biological target: T1, Kv7.2/7.3 (Homo sapiens, UniProt O43525+O43526); experiment: Kv7.2/7.3 Activation Assay (Thallium Flux Assay); format: cell-based; details: hKV7.2/7.3 cell line; test compound at single concentration of 10 μM; fluorescence at 90 sec normalized to positive control (retigabine, 30 μM)
T1 construct: Kv7.2 tetracycline-induced, Kv7.3 constitutive
In short: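 Single-point activity at 10 μM (0.1% DMSO, HEPES-buffered saline, pH 7.4) was scored from fluorescence at 90 s relative to 30 μM retigabine. Categories were none <0.15, moderate 0.15-0.7 and high >0.7. Thallium influx after stimulus addition was followed with FluxOR II Green dye in hKv7.2/7.3 cells, Kv7.2 expressed under overnight tetracycline (10 ng/mL) induction.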

SMILES	Kv7.2/7.3 Activity
Cn1nc(NC(=O)[C@H]2C[C@](C)(F)C2)c(C2CCC2)c1-c1ccc(F)cc1 [Compound 202, (1r,3r)-N-(4-cyclobutyl-5-(4-fluorophenyl)-1-methyl-1H-pyrazol-3-yl)-3-fluoro-3-methylcyclobutane-1-carboxamide]	++ (“++” High Activity ≥ 0.7)
N#CCn1nc(NC(=O)C[C@H]2CC(F)(F)C2(F)F)c(C2CCC2)c1-c1ccc(F)cc1 [Compound 46, (S)-N-(1-(cyanomethyl)-4-cyclobutyl-5-(4-fluorophenyl)-1H-pyrazol-3-yl)-2-(2,2,3,3-tetrafluorocyclobutyl)acetamide]	+ (“+” Moderate Activity 0.15-0.7)
Cn1nc(NC(=O)C[C@@H]2CC(F)(F)C2(F)F)c(C2CCC2)c1C(F)(F)c1ccccc1 [Compound 32, (R)-N-(4-cyclobutyl-5-(difluoro(phenyl)methyl)-1-methyl-1H-pyrazol-3-yl)-2-(2,2,3,3-tetrafluorocyclobutyl)acetamide]	++ (“++” High Activity ≥ 0.7)
C[C@H](C(=O)Nc1nn(C)c(-c2ccc(F)cc2)c1C1CCC1)C1CC(F)(F)C1 [Compound 129, (S)-N-(4-cyclobutyl-5-(4-fluorophenyl)-1-methyl-1H-pyrazol-3-yl)-2-(3,3-difluorocyclobutyl)propanamide]	++ (“++” High Activity ≥ 0.7)
Cn1nc(NC(=O)C[C@H]2CC(F)(F)C2(F)F)c(C2CCC2)c1-c1cnc(C(F)(F)F)s1 [Compound 60, (S)-N-(4-cyclobutyl-1-methyl-5-(2-(trifluoromethyl)thiazol-5-yl)-1H-pyrazol-3-yl)-2-(2,2,3,3-tetrafluorocyclobutyl)acetamide]	+ (“+” Moderate Activity 0.15-0.7)
Cn1nc(NC(=O)CC2(C(F)F)CC2)c(C2CCC2)c1-c1cc(F)c(F)c(F)c1 [Compound 265, N-(4-cyclobutyl-1-methyl-5-(3,4,5-trifluorophenyl)-1H-pyrazol-3-yl)-2-(1-(difluoromethyl)cyclopropyl)acetamide]	++ (“++” High Activity ≥ 0.7)
Cn1nc(NC(=O)CC2CC(F)(F)C2)c(C2CCC2)c1C1CCCCC1 [Compound 70, N-(4-cyclobutyl-5-cyclohexyl-1-methyl-1H-pyrazol-3-yl)-2-(3,3-difluorocyclobutyl)acetamide]	++ (“++” High Activity ≥ 0.7)
Cn1nc(NC(=O)[C@@H]2C[C@@H]2F)c(C2CCC2)c1-c1ccc(F)cc1 [Compound 253, (1S,2S)-N-(4-cyclobutyl-5-(4-fluorophenyl)-1-methyl-1H-pyrazol-3-yl)-2-fluorocyclopropane-1-carboxamide]	− (“−” No Activity < 0.15)
Cn1nc(NC(=O)C[C@@H]2CC(F)(F)C2(F)F)c(C2CCC2)c1Cc1ccc(OC(F)(F)F)cc1 [Compound 63, (R)-N-(4-cyclobutyl-1-methyl-5-(4-(trifluoromethoxy)benzyl)-1H-pyrazol-3-yl)-2-(2,2,3,3-tetrafluorocyclobutyl)acetamide]	++ (“++” High Activity ≥ 0.7)
Cn1nc(NC(=O)CC2(O)CCC2)c(C2CCC2)c1-c1ccc(OC(F)(F)F)cc1 [Compound 87, N-(4-cyclobutyl-1-methyl-5-(4-(trifluoromethoxy)phenyl)-1H-pyrazol-3-yl)-2-(1-hydroxycyclobutyl)acetamide]	+ (“+” Moderate Activity 0.15-0.7)
Cn1nc(NC(=O)C2CC3(C2)CC3(F)F)c(C2CCC2)c1-c1ccc(OC(F)(F)F)cc1 (centres unmarked) [Compound 186, N-(4-cyclobutyl-1-methyl-5-(4-(trifluoromethoxy)phenyl)-1H-pyrazol-3-yl)-1,1-difluorospiro[2.3]hexane-5-carboxamide]	++ (“++” High Activity ≥ 0.7)
Cn1nc(NC(=O)C[C@@H]2CC(F)(F)C2(F)F)c(C2CCC2)c1-c1ccc(F)c(F)c1 [Compound 235, (R)-N-(4-cyclobutyl-5-(3,4-difluorophenyl)-1-methyl-1H-pyrazol-3-yl)-2-(2,2,3,3-tetrafluorocyclobutyl)acetamide]	++ (“++” High Activity ≥ 0.7)
Cn1nc(NC(=O)[C@@H]2CC2(F)F)c(C2CC2)c1-c1ccc(F)cc1 [Compound 163, (S)-N-(4-cyclopropyl-5-(4-fluorophenyl)-1-methyl-1H-pyrazol-3-yl)-2,2-difluorocyclopropane-1-carboxamide]	+ (“+” Moderate Activity 0.15-0.7)
Cn1nc(NC(=O)CC2(C(F)(F)F)CC2)c(C2CCC2)c1-c1ccc(OC(F)(F)F)cc1 [Compound 31, N-(4-cyclobutyl-1-methyl-5-(4-(trifluoromethoxy)phenyl)-1H-pyrazol-3-yl)-2-(1-(trifluoromethyl)cyclopropyl)acetamide]	++ (“++” High Activity ≥ 0.7)
Cn1nc(NC(=O)[C@@H]2CC2(F)F)c(C2CCC2)c1C1CC(C)(C)C1 [Compound 147, (S)-N-(4-cyclobutyl-5-(3,3-dimethylcyclobutyl)-1-methyl-1H-pyrazol-3-yl)-2,2-difluorocyclopropane-1-carboxamide]	++ (“++” High Activity ≥ 0.7)
Cn1nc(NC(=O)C[C@H]2CC(F)(F)C2(F)F)c(C2CCC2)c1C(F)(F)c1ccccc1 [Compound 39, (S)-N-(4-cyclobutyl-5-(difluoro(phenyl)methyl)-1-methyl-1H-pyrazol-3-yl)-2-(2,2,3,3-tetrafluorocyclobutyl)acetamide]	++ (“++” High Activity ≥ 0.7)
O=C(CC1(C(F)(F)F)CC1)Nc1nn(CCO)c(Cc2ccccc2)c1C1CCC1 [Compound 76, N-(5-benzyl-4-cyclobutyl-1-(2-hydroxyethyl)-1H-pyrazol-3-yl)-2-(1-(trifluoromethyl)cyclopropyl)acetamide]	++ (“++” High Activity ≥ 0.7)
Cn1nc(NC(=O)[C@@H]2CC2(F)F)c(C2CCC2)c1-c1ccc(F)cc1F [Compound 160, (S)-N-(4-cyclobutyl-5-(2,4-difluorophenyl)-1-methyl-1H-pyrazol-3-yl)-2,2-difluorocyclopropane-1-carboxamide]	− (“−” No Activity < 0.15)
Cn1nc(NC(=O)[C@@H]2CC2(F)F)c(C2(C)CCC2)c1-c1ccc(F)cc1 [Compound 140, (S)-2,2-difluoro-N-(5-(4-fluorophenyl)-1-methyl-4-(1-methylcyclobutyl)-1H-pyrazol-3-yl)cyclopropane-1-carboxamide]	+ (“+” Moderate Activity 0.15-0.7)
Cn1nc(NC(=O)NC2CC(F)(F)C2)c(C2CCC2)c1-c1ccc(F)cc1 [Compound 212, 1-(4-cyclobutyl-5-(4-fluorophenyl)-1-methyl-1H-pyrazol-3-yl)-3-(3,3-difluorocyclobutyl)urea]	+ (“+” Moderate Activity 0.15-0.7)
Cn1nc(NC(=O)[C@@H]2CC2(F)F)c(C2CCC2)c1-c1ccc(Cl)cc1 [Compound 223, (S)-N-(5-(4-chlorophenyl)-4-cyclobutyl-1-methyl-1H-pyrazol-3-yl)-2,2-difluorocyclopropane-1-carboxamide]	+ (“+” Moderate Activity 0.15-0.7)
Cn1nc(NC(=O)NC2CC3(C2)CC(F)(F)C3)c(C2CCC2)c1-c1ccc(F)cc1 [Compound 244, 1-(4-cyclobutyl-5-(4-fluorophenyl)-1-methyl-1H-pyrazol-3-yl)-3-(6,6-difluorospiro[3.3]heptan-2-yl)urea]	− (“−” No Activity < 0.15)
Cn1nc(NC(=O)C[C@@H]2CC(F)(F)C2(F)F)c(C2CCC2)c1-c1ccc(OC(F)F)nc1 [Compound 283, (R)-N-(4-cyclobutyl-5-(6-(difluoromethoxy)pyridin-3-yl)-1-methyl-1H-pyrazol-3-yl)-2-(2,2,3,3-tetrafluorocyclobutyl)acetamide]	++ (“++” High Activity ≥ 0.7)
Cn1nc(NC(=O)C[C@@H]2CC(F)(F)C2(F)F)c(C2CCC2)c1C1CCCCC1 [Compound 66, (R)-N-(4-cyclobutyl-5-cyclohexyl-1-methyl-1H-pyrazol-3-yl)-2-(2,2,3,3-tetrafluorocyclobutyl)acetamide]	++ (“++” High Activity ≥ 0.7)
CC(C)C1(C(=O)Nc2nn(C)c(-c3ccc(F)cc3)c2C2CCC2)CC1 [Compound 136, N-(4-cyclobutyl-5-(4-fluorophenyl)-1-methyl-1H-pyrazol-3-yl)-1-isopropylcyclopropane-1-carboxamide]	++ (“++” High Activity ≥ 0.7)
Cn1nc(NC(=O)C2CC(F)(F)C2)c(C2CCC2)c1-c1cc(F)c(F)c(F)c1 [Compound 261, N-(4-cyclobutyl-1-methyl-5-(3,4,5-trifluorophenyl)-1H-pyrazol-3-yl)-3,3-difluorocyclobutane-1-carboxamide]	++ (“++” High Activity ≥ 0.7)
Cn1nc(NC(=O)C2CSC2)c(C2CCC2)c1-c1cc(F)c(F)c(F)c1 [Compound 263, N-(4-cyclobutyl-1-methyl-5-(3,4,5-trifluorophenyl)-1H-pyrazol-3-yl)thietane-3-carboxamide]	++ (“++” High Activity ≥ 0.7)
COC1(CC(=O)Nc2nn(C)c(-c3ccc(F)c(F)c3)c2C2CCC2)CCC1 [Compound 216, N-(4-cyclobutyl-5-(3,4-difluorophenyl)-1-methyl-1H-pyrazol-3-yl)-2-(1-methoxycyclobutyl)acetamide]	++ (“++” High Activity ≥ 0.7)
Cn1nc(NC(=O)[C@H]2C[C@H](C)C2)c(C2CCC2)c1-c1ccc(F)cc1 [Compound 123, (1R,3R)-N-(4-cyclobutyl-5-(4-fluorophenyl)-1-methyl-1H-pyrazol-3-yl)-3-methylcyclobutane-1-carboxamide]	++ (“++” High Activity ≥ 0.7)

Source: patent US20250171430A1, “PYRAZOLYL COMPOUNDS AS KV7 CHANNEL ACTIVATORS” (Biohaven Therapeutics Ltd., priority 2022, published 2025)
